Experimental findings from ChEMBL document CHEMBL1127588, “A structure-activity relationship study of benzylic modifications of 4-[1-(1-naphthyl)ethyl]-1H-imidazoles on alpha 1- and alpha 2-adrenergic receptors” (J Med Chem, 1994) are described below.

Where only a bound is given, the exact number is not on record here.

A short description of test [1]: Ratio between IC50 values of alpha 1 and alpha 2 receptors.
Test [2] has as its target Adrenergic receptor alpha (Rattus norvegicus) (UniProt P15823+P23944+P43140+P22086+P19328+P22909). The test is described as follows: Ratio between EC50 values of alpha 1 and alpha 2 receptors. It is filed as protein assay.
Test [3] addresses T1, Adrenergic receptor alpha-2 (Rattus norvegicus, UniProt P22086+P19328+P22909).
T1 sequence (P22086 whole entry): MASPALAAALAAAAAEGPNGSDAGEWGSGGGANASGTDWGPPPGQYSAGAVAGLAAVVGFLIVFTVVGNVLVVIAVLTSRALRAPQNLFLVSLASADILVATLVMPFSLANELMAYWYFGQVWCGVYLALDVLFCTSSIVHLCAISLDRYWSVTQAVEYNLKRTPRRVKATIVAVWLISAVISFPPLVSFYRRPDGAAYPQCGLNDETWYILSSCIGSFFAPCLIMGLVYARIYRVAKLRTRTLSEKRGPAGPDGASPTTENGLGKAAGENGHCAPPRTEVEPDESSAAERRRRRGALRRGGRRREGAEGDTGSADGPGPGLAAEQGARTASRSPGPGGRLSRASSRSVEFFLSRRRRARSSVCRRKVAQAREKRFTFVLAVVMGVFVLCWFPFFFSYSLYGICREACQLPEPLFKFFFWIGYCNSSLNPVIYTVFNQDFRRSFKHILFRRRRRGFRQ
T1 sequence (P19328 whole entry): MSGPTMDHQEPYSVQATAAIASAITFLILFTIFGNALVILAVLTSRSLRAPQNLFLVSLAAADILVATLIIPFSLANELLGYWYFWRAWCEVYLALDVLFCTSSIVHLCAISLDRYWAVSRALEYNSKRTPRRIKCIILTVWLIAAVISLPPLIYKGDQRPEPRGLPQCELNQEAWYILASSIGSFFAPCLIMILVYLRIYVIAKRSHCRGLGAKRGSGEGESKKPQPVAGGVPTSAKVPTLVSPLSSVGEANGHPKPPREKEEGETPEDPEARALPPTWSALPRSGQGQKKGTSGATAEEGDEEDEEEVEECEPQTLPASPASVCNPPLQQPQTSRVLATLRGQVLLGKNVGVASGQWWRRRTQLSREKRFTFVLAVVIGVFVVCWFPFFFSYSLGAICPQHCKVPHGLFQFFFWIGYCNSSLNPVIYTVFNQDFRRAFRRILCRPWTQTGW
T1 sequence (P22909 whole entry): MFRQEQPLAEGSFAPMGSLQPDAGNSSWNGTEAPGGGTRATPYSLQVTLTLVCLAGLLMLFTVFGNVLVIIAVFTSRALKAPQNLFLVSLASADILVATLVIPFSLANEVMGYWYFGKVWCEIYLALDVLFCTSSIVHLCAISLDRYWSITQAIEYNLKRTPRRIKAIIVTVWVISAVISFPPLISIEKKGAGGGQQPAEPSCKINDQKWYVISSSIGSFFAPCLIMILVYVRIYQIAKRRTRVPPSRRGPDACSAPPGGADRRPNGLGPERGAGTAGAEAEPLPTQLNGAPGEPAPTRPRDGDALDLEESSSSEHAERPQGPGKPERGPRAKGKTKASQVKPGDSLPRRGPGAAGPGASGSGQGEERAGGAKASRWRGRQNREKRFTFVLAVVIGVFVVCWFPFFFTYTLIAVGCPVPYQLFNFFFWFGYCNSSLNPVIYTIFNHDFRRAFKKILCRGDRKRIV
The test is described as follows: Tested for its binding affinity against alpha-2 receptor in rat brain membrane. The format is cell membranes.

Test [4] has as its target T2, Adrenergic receptor alpha-1 (Rattus norvegicus, UniProt P15823+P23944+P43140).
T2 sequence (P15823 whole entry): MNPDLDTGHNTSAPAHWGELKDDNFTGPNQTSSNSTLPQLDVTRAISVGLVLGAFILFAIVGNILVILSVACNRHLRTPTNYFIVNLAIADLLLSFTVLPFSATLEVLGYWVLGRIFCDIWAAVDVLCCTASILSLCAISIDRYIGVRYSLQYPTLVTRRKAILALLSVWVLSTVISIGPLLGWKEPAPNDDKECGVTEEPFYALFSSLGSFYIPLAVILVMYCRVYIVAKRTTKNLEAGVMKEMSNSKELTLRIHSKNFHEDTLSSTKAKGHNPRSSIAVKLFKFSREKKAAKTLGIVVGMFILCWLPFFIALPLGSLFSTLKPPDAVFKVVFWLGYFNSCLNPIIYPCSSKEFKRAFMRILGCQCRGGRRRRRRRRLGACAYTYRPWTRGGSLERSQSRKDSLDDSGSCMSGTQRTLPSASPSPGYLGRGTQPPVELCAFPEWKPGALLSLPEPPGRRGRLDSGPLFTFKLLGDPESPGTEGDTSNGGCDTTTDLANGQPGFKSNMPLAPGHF
T2 sequence (P23944 whole entry): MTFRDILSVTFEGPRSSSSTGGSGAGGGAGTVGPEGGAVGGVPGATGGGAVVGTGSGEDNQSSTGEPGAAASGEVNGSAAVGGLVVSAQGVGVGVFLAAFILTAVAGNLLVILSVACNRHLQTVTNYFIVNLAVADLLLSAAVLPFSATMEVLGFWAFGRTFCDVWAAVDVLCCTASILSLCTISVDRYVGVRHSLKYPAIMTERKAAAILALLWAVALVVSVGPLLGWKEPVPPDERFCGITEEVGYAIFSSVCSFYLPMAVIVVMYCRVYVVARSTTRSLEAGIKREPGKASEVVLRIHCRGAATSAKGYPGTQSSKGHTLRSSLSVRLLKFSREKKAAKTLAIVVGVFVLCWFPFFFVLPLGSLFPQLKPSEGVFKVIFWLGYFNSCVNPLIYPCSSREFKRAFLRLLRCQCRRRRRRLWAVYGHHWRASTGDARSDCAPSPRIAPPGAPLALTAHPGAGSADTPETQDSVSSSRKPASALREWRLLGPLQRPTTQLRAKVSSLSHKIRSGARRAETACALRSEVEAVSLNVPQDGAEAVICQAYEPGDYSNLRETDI
T2 sequence (P43140 whole entry): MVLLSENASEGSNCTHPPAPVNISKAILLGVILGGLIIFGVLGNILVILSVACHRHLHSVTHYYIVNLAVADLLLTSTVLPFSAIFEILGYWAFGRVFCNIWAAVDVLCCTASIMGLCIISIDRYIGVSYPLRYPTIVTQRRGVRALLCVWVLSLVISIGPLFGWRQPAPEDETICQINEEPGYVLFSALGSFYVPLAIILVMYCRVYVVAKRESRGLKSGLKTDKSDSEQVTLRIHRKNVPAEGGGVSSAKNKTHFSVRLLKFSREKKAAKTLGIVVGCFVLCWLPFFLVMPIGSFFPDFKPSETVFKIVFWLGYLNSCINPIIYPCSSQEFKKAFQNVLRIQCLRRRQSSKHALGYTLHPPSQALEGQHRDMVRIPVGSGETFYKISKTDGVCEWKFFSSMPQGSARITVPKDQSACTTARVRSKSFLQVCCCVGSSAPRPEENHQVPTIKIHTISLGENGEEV
As to the kind of experiment: Tested for its binding affinity against alpha-1 receptor in rat brain membrane. It is filed as cell membranes.

Consider `CC(c1c[nH]cn1)c1cccc2ccccc12` (stereo in doubt; 2), for which the Ratio in test [1] came to 18.2; in test [2] it was 643.

A word on the Ki: it is the dissociation constant of the complex between target and ligand, obtained from inhibition or displacement. High values mean lower affinity, low ones higher affinity. `Cl.OC(c1c[nH]cn1)(c1cccc2ccccc12)C(F)(F)F` (stereo unspecified): the figures for the Ki in test [3] and in test [4] were greater than 24.539 µM and greater than 50 µM, respectively. In addition, the Ratio in test [1] is greater than 2.

For `CC(c1c[nH]cn1)c1cccc2ccccc12` (stereo in doubt; S-(-)-2), in test [1], the Ratio is 22.3.

For the compound `CC(c1c[nH]cn1)c1cccc2ccccc12` (stereo in doubt; S-(+)-2), the Ratio in test [1] was determined as 41.9; in test [2], 752.

As to `O=C(O)C(=O)O.O=C(c1c[nH]cn1)c1cccc2ccccc12`, the Ki is 31.754 µM in test [3] and 15.902 µM in test [4]. Further, the Ratio in test [1] is 0.5.
